Test results taken from patent US20070117864A1, “Composition for preventing and treating hepatoma” (Tokyo University of Agr. & Tech. TLO Co., Ltd., priority 2003, published 2007).

Assays:
AH109A cells = test: in vitro invasion assay of AH109A cells beneath mesothelial cell (M-cell) monolayer; type: cell-based, rat
Procedure: The tumor invasion activity was measured using a partially modified version (Miura Y., Shiomi H., Sakai F., and Yagasaki K. 1997 Assay systems for screening food components that have anti-proliferative and anti-invasive activity to rat ascites hepatoma cells: In vitro and ex vivo effects of green tea extract. Cytotechnology 23: 127-132) of the in vitro invasion assay method of Akedo et al (Akedo H, Shinkai K, Mukai M, Mori Y, Tateishi R, Tanaka K, Yamamoto R, Morishita T. Interaction of rat ascites hepatoma cells with cultured mesothelial cell layers: a model for tumor invasion. Cancer Res. 1986 May; 46(5):2416-22).
Mesothelial cells (M-cells) directly prepared from rat mesenteries to culture were cultured for 7 to 10 days until a confluent monolayer was formed, and subsequently, the medium was changed to 3 ml of the respective experimental media. AH109A cells were overlayed onto the mesothelial cells at the density of 2.4×10^4 cells, and were gently agitated, and were cultured in a CO2 incubator. […] The numbers of cells and numbers of colonies of the AH109A cells that had infiltrated beneath the mesothelial cell monolayer were counted in 10 places of 2-mm square divisions selected at random for 1 dish, and the mean values of the numbers obtained by calculating these counts per square centimeter were taken as an index of the tumor invasion activity. […]

M-cells = test: proliferative activity of M-cells by [3H]thymidine incorporation; type: cell-based, rat; settings: in vitro
Procedure: Male Donryu rats (4 to 10 weeks of age) were anesthetized by intraperitoneal injection of Nembutal at the dose of 5 mg/0.1 ml/100 g of body weight, and blood was collected by cutting the carotid artery. Subsequently, following disinfection using a hibiten solution, the abdomens of the animals were opened in a clean bench, and the mesenteric membranes were removed one by one and washed with PBS (−), and were then recovered in another 15 ml of PBS (−). The same amount of 0.5% trypsin in PBS (−) was added, and the preparation was agitated for 20 minutes at 37° C. Subsequently, 5 ml of a 10% CS/MEM was added, to stop the trypsin reaction. Then, the preparation was subjected to pipetting by means of a Komagome Pipette, and filtrated using a metal mesh. The filtrate was centrifuged for 10 minutes at 1500 rpm (440×g), 4° C., and was washed with PBS (−). The collected cells were inoculated into a 6 cm dish with an attached grid (2 mm square) at the density of 1.5 to 2.0×10^5 cells. The medium of 10% CS/MEM was used, and the medium was changed on the day following collection and every other day thereafter. […] Subsequently, the proliferation activity was measured as above-mentioned in (3).

[1] = serum lipid peroxide levels (TBARS) in hepatoma-bearing rats; type: in vivo, rat; settings: mean ± SEM of 11 rats
Procedure: Male Donryu rats of four weeks old were purchased from NRC Haruna, Gumma, Japan, and were preliminarily fed for 6 days in quintuple cages in a room with a controlled environment with light period of 8:00 to 20:00, room temperature of 22±1° C., and relative humidity of 60±5%. For the first 3 days, the animals were fed ad libitum with a stock pellet diet (CE-2; CLEA Japan, Tokyo), and for the next 3 days, they were fed a basal diet containing 20% milk casein (20C) (Table 1) ad libitum together with tap water in a glass container. Following the completion of this preparatory raising, the rats were divided into three groups (11 animals per group) with equal average body weights of the respective groups were equal, and 1.0×10^7 of AH109A cells suspended in PBS (−) were transplanted in the back of all the rats. From the time immediately after transplantation, in the respective experimental groups, the animals were fed the experimental diets shown in Table 2. During the experimental period, the body weight, food intake and solid tumor size (sum of length, width and height) were measured everyday. […] LPO levels were determined by measuring thiobarbituric acid-reactive substances (TBARS) by the Yagi fluorescence method using a lipid peroxide test Wako (Wako Pure Chemical Industries).

For `O=C1OCC(Cc2cccc(O)c2)C1Cc1cccc(O)c1` (centres unmarked) [Enterolactone, enterolactone], the “ENL concentration at which cell toxicity was seen in the M-cells of the invasion assay system” value (AH109A cells; M-cells in tumor invasion assay) was ≥ 25 µM, the “effect on tumor invasion of AH109A cells” value (AH109A cells; in vitro, 24 hours on M-cell monolayer) was “dose-dependent inhibitory effect” and the “proliferation of M-cells (normal cells)” value (M-cells) was “inhibit the proliferation of M-cells in a dose-dependent manner”. The “Serum TBARS” value ([1]; diet 10 ppm) was 7.31 ± 0.37 nmol/mL and the “Serum TBARS” value ([1]; diet 100 ppm) was 6.87 ± 0.51 nmol/mL.
